Measured values as given in patent EP4817611A1, “PHARMACEUTICAL COMPOSITION” (EA Pharma Co., Ltd., priority 2023, dated 2025).

Assays:
[1] = One-month stability test in sealed glass vial under three storage conditions; decomposition product 1 by HPLC; format: physicochemical; details: Compound (2) HCl 62.5 mg + acidic substance 62.5 mg
Description: When the hydrochloride of the compound represented by the formula (2) (hereinafter referred to as "Compound (2) HCl") is decomposed, the following decomposition products 1 and 2 are produced. [drawing 9]
The amount of the decomposition product 1 produced was measured over time by HPLC to evaluate the stability of the pharmaceutical composition. The HPLC analysis conditions are as follows. When airtight conditions were employed in the stability test, aluminum packaging was used.
• Detector: UV absorption photometer (measurement wavelength: 256 nm) • Column: InertSustain AQ-C18 HP 3 µm, 3.0 × 150 mm (reverse-phase C18 column) • Column temperature: a constant temperature around 25°C • Mobile phase A: 50 mmol/L ammonium formate buffer solution (pH: 4) • Mobile phase B: 50 mmol/L ammonium formate buffer solution (pH: 4) : acetonitrile = 1:4 • Flow rate: 1.0 ml/min
• Time: 0 → 20 • Mobile phase A (%): 95 → 0 • Mobile phase B (%): 5 → 100
The formulation in Table 5-1 (the types of acidic substances are listed in Table 5-2) was mixed in a mortar to prepare a pharmaceutical composition, which was then sealed in a glass vial, and a one-month stability test was performed under three storage conditions (airtight conditions at 4°C, airtight conditions at 60°C, and open conditions at 60°C). As a reference example, a stability test was also performed on the active ingredient alone (without an acidic substance).

[2] = recorded in the Chemical Book; cited from earlier work

Row | SMILES | Content of decomposition product 1 (%) (4°C, airtight) ([1]; 4°C, airtight, glass vial) | Content of decomposition product 1 (%) (60°C, airtight) ([1]; 60°C, airtight, glass vial) | Content of decomposition product 1 (%) (60°C, open, 75% RH) ([1]; 60°C, open, 75% RH) | pKa [2]
1 | CC(C)(Cc1ccc(C(=O)Oc2ccc(C(=N)N)cc2F)s1)C(=O)O [Reference example] | 0.03% | 0.05% | 0.10% | 
2 | N[C@@H](CC(=O)O)C(=O)O [aspartic acid] |  |  |  | 1.99
